Test system: vasopressor response of angiotensin II
Experiment: AII Challenge: antagonism of angiotensin II vasopressor response
Type: in vivo
Conditions: for inhibition in vivo at 3 mg/kg / inhibition in vivo at 5 mg/kg: Rattus norvegicus
In short: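 Percent antagonism is based on the systolic blood pressure rise (mmHg) to i.v. angiotensin II at 0.05 and 0.1 ug/kg. Each rat's own predose response was taken as 100%. Challenges were repeated from 30 to 300 min after i.v., i.p. or oral compound in cannulated conscious male SHR, 16-20 weeks old.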

[1] = 1 mg/kg P.O., AII 0.05 mcg/kg IV, 60 min post dose
[2] = 1 mg/kg P.O., AII 0.05 mcg/kg IV, 90 min post dose
[3] = 1 mg/kg P.O., AII 0.05 mcg/kg IV, 120 min post dose
[4] = 1 mg/kg P.O., AII 0.05 mcg/kg IV, 180 min post dose
[5] = 1 mg/kg P.O., AII 0.05 mcg/kg IV, 240 min post dose
[6] = 1 mg/kg P.O., AII 0.1 mcg/kg IV, 60 min post dose
[7] = 1 mg/kg P.O., AII 0.1 mcg/kg IV, 90 min post dose
[8] = 1 mg/kg P.O., AII 0.1 mcg/kg IV, 120 min post dose
[9] = 1 mg/kg P.O., AII 0.1 mcg/kg IV, 180 min post dose
[10] = 1 mg/kg P.O., AII 0.1 mcg/kg IV, 240 min post dose
[11] = 3 mg/kg I.V., AII 0.05 mcg/kg IV, 30 min post dose
[12] = 3 mg/kg I.V., AII 0.05 mcg/kg IV, 90 min post dose
[13] = 3 mg/kg I.V., AII 0.05 mcg/kg IV, 120 min post dose
[14] = 3 mg/kg I.V., AII 0.05 mcg/kg IV, 180 min post dose
[15] = 3 mg/kg I.V., AII 0.05 mcg/kg IV, 240 min post dose
[16] = 3 mg/kg I.V., AII 0.1 mcg/kg IV, 30 min post dose
[17] = 3 mg/kg I.V., AII 0.1 mcg/kg IV, 60 min post dose
[18] = 3 mg/kg I.V., AII 0.1 mcg/kg IV, 90 min post dose
[19] = 3 mg/kg I.V., AII 0.1 mcg/kg IV, 120 min post dose
[20] = 3 mg/kg I.V., AII 0.1 mcg/kg IV, 180 min post dose
[21] = 3 mg/kg I.V., AII 0.1 mcg/kg IV, 240 min post dose
[22] = 5 mg/kg P.O., AII 0.05 mcg/kg IV, 60 min post dose
[23] = 5 mg/kg P.O., AII 0.05 mcg/kg IV, 120 min post dose
[24] = 5 mg/kg P.O., AII 0.1 mcg/kg IV, 60 min post dose
[25] = iv, 0.5 h, 3 mg/kg I.V., AII 0.05 mcg/kg IV, 30 min post dose
[26] = iv, 0.5 h, 3 mg/kg I.V., AII 0.1 mcg/kg IV, 30 min post dose
[27] = iv, 1 h, 3 mg/kg I.V., AII 0.1 mcg/kg IV, 60 min post dose
[28] = iv, 2 h, 3 mg/kg I.V., AII 0.1 mcg/kg IV, 120 min post dose
[29] = iv, 3 h, 3 mg/kg I.V., AII 0.05 mcg/kg IV, 180 min post dose
[30] = iv, 3 h, 3 mg/kg I.V., AII 0.1 mcg/kg IV, 180 min post dose
[31] = iv, 4 h, 3 mg/kg I.V., AII 0.05 mcg/kg IV, 240 min post dose
[32] = iv, 4 h, 3 mg/kg I.V., AII 0.1 mcg/kg IV, 240 min post dose
[33] = iv, […], 3 mg/kg I.V., AII 0.05 mcg/kg IV, 90 min post dose
[34] = iv, […], 3 mg/kg I.V., AII 0.1 mcg/kg IV, 90 min post dose
[35] = po, 0.5 h, 5 mg/kg P.O., AII 0.05 mcg/kg IV, 30 min post dose
[36] = po, 1 h, 5 mg/kg P.O., AII 0.05 mcg/kg IV, 60 min post dose
[37] = po, 1 h, 5 mg/kg P.O., AII 0.1 mcg/kg IV, 60 min post dose
[38] = po, 2 h, 5 mg/kg P.O., AII 0.05 mcg/kg IV, 120 min post dose
[39] = po, 3 h, 5 mg/kg P.O., AII 0.05 mcg/kg IV, 180 min post dose
[40] = po, 3 h, 5 mg/kg P.O., AII 0.1 mcg/kg IV, 180 min post dose
[41] = po, […], 5 mg/kg P.O., AII 0.05 mcg/kg IV, 90 min post dose
[42] = po, […], 5 mg/kg P.O., AII 0.1 mcg/kg IV, 90 min post dose

SMILES: CCCCc1nc2ccc([C@@]3(C)C[C@@H]4CCCN4O3)cc2c(=O)n1Cc1ccc(-c2ccccc2-c2nnn[nH]2)cc1 (relative stereo) [Example 58, Cis-(+/-)-2-Butyl-6-(hexahydro-2-methylpyrrolo[1,2-1,2-b]isoxazol-2-yl) -3-[[2'-(1H-tetrazol-5-yl) [1,1'-biphenyl]-4-yl]methyl]-4(3H)-quinazolinone]
- % Inhibition [1]: 62%
- Response Average Change [1]: 16 mmHg
- % Inhibition [2]: 68%
- Response Average Change [2]: 13.5 mmHg
- % Inhibition [3]: 67%
- Response Average Change [3]: 14 mmHg
- % Inhibition [4]: 82%
- Response Average Change [4]: 7.5 mmHg
- % Inhibition [5]: 82%
- Response Average Change [5]: 7.5 mmHg
- % Inhibition [6]: 37%
- Response Average Change [6]: 30 mmHg
- % Inhibition [7]: 44%
- Response Average Change [7]: 26.5 mmHg
- % Inhibition [8]: 53%
- Response Average Change [8]: 22.5 mmHg
- % Inhibition [9]: 56%
- Response Average Change [9]: 21 mmHg
- % Inhibition [10]: 68%
- Response Average Change [10]: 15 mmHg
- Response Average Change [11]: 0 mmHg
- Response Average Change (3 mg/kg I.V., AII 0.05 mcg/kg IV, 60 min post dose): 5 mmHg
- Response Average Change [12]: 2.5 mmHg
- Response Average Change [13]: 5 mmHg
- Response Average Change [14]: 6.5 mmHg
- Response Average Change [15]: 7.5 mmHg
- Response Average Change [16]: 10 mmHg
- Response Average Change [17]: 4 mmHg
- Response Average Change [18]: 2.5 mmHg
- Response Average Change [19]: 10 mmHg
- Response Average Change [20]: 6.5 mmHg
- Response Average Change [21]: 4 mmHg
- % Inhibition [22]: 94%
- Response Average Change [22]: 2.5 mmHg
- Response Average Change [23]: 5 mmHg
- Response Average Change (5 mg/kg P.O., AII 0.05 mcg/kg IV, 300 min post dose): 1 mmHg
- % Inhibition [24]: 100%
- Response Average Change [24]: 0 mmHg
- inhibition in vivo at 3 mg/kg [25]: 100%
- inhibition in vivo at 3 mg/kg [26]: 78%
- inhibition in vivo at 3 mg/kg [27]: 91%
- inhibition in vivo at 3 mg/kg [28]: 78%
- inhibition in vivo at 3 mg/kg [29]: 83%
- inhibition in vivo at 3 mg/kg [30]: 86%
- inhibition in vivo at 3 mg/kg [31]: 81%
- inhibition in vivo at 3 mg/kg [32]: 91%
- inhibition in vivo at 3 mg/kg [33]: 94%
- inhibition in vivo at 3 mg/kg [34]: 94%
- inhibition in vivo at 3 mg/kg (po, 0.5 h, 3 mg/kg P.O., AII 0.05 mcg/kg IV, 30 min post dose): 75%
- inhibition in vivo at 5 mg/kg [35]: 90%
- inhibition in vivo at 3 mg/kg (po, 1 h, 3 mg/kg P.O., AII 0.05 mcg/kg IV, 60 min post dose): 92%
- inhibition in vivo at 3 mg/kg (po, 1 h, 3 mg/kg P.O., AII 0.1 mcg/kg IV, 60 min post dose): 67%
- inhibition in vivo at 5 mg/kg [36]: 94%
- inhibition in vivo at 5 mg/kg [37]: 100%
- inhibition in vivo at 3 mg/kg (po, 2 h, 3 mg/kg P.O., AII 0.05 mcg/kg IV, 120 min post dose): 67%
- inhibition in vivo at 3 mg/kg (po, 2 h, 3 mg/kg P.O., AII 0.1 mcg/kg IV, 120 min post dose): 91%
- inhibition in vivo at 5 mg/kg [38]: 88%
- inhibition in vivo at 3 mg/kg (po, 3 h, 3 mg/kg P.O., AII 0.05 mcg/kg IV, 180 min post dose): 75%
- inhibition in vivo at 3 mg/kg (po, 3 h, 3 mg/kg P.O., AII 0.1 mcg/kg IV, 180 min post dose): 74%
- inhibition in vivo at 5 mg/kg [39]: 75%
- inhibition in vivo at 5 mg/kg [40]: 89%
- inhibition in vivo at 5 mg/kg (po, 4 h, 5 mg/kg P.O., AII 0.05 mcg/kg IV, 240 min post dose): 93%
- inhibition in vivo at 3 mg/kg (po, 5 h, 3 mg/kg P.O., AII 0.05 mcg/kg IV, 300 min post dose): 57%
- inhibition in vivo at 5 mg/kg (po, 5 h, 5 mg/kg P.O., AII 0.05 mcg/kg IV, 300 min post dose): 98%
- inhibition in vivo at 5 mg/kg (po, 5 h, 5 mg/kg P.O., AII 0.1 mcg/kg IV, 300 min post dose): 84%
- inhibition in vivo at 3 mg/kg (po, […], 3 mg/kg P.O., AII 0.05 mcg/kg IV, 90 min post dose): 75%
- inhibition in vivo at 5 mg/kg [41]: 88%
- inhibition in vivo at 5 mg/kg [42]: 84%

SMILES: CCCCc1nc2ccc([C@@H]3C[C@H]4c5ccccc5CCN4O3)cc2c(=O)n1Cc1ccc(-c2ccccc2-c2nnn[nH]2)cc1 (relative stereo) [Example 63, Cis-2-Butyl-6-(1,5,6,10b-tetrahydro-2H-isoxazolo[3,2-a]isoquinolin-2-yl)-3-[[2'-(1H-tetrazol5-yl)[1,1'-biphenyl]-4-yl]methyl]-4(3H)-quinazolinone]
- Response Average Change [11]: 10.5 mmHg
- Response Average Change [12]: 10 mmHg
- Response Average Change [13]: 10 mmHg
- Response Average Change [14]: 17.5 mmHg
- Response Average Change [15]: 12.5 mmHg
- Response Average Change (3 mg/kg I.V., AII 0.05 mcg/kg IV, 300 min post dose): 23.5 mmHg
- Response Average Change [16]: 10 mmHg
- Response Average Change [17]: 15 mmHg
- Response Average Change [18]: 17.5 mmHg
- Response Average Change [19]: 17.5 mmHg
- Response Average Change [20]: 22.5 mmHg
- Response Average Change [21]: 23 mmHg
- Response Average Change (3 mg/kg I.V., AII 0.1 mcg/kg IV, 300 min post dose): 25 mmHg
- Response Average Change (3 mg/kg I.V., AII 0.5 mcg/kg IV, 60 min post dose): 10 mmHg
- Response Average Change (5 mg/kg P.O., AII 0.05 mcg/kg IV, 30 min post dose): 22.5 mmHg
- Response Average Change [22]: 30 mmHg
- Response Average Change (5 mg/kg P.O., AII 0.05 mcg/kg IV, 90 min post dose): 20 mmHg
- Response Average Change [23]: 16.5 mmHg
- Response Average Change (5 mg/kg P.O., AII 0.05 mcg/kg IV, 180 min post dose): 20 mmHg
- Response Average Change (5 mg/kg P.O., AII 0.1 mcg/kg IV, 30 min post dose): 35 mmHg
- Response Average Change [24]: 42.5 mmHg
- Response Average Change (5 mg/kg P.O., AII 0.1 mcg/kg IV, 90 min post dose): 34 mmHg
- Response Average Change (5 mg/kg P.O., AII 0.1 mcg/kg IV, 120 min post dose): 32.5 mmHg
- Response Average Change (5 mg/kg P.O., AII 0.1 mcg/kg IV, 180 min post dose): 24 mmHg
- inhibition in vivo at 3 mg/kg [25]: 70%
- inhibition in vivo at 3 mg/kg [26]: 73%
- inhibition in vivo at 3 mg/kg [27]: 60%
- inhibition in vivo at 3 mg/kg (iv, 1 h, 3 mg/kg I.V., AII 0.5 mcg/kg IV, 60 min post dose): 71%
- inhibition in vivo at 3 mg/kg (iv, 2 h, 3 mg/kg I.V., AII 0.05 mcg/kg IV, 120 min post dose): 71%
- inhibition in vivo at 3 mg/kg [28]: 53%
- inhibition in vivo at 3 mg/kg [29]: 50%
- inhibition in vivo at 3 mg/kg [30]: 40%
- inhibition in vivo at 3 mg/kg [31]: 64%
- inhibition in vivo at 3 mg/kg [32]: 39%
- inhibition in vivo at 3 mg/kg (iv, 5 h, 3 mg/kg I.V., AII 0.05 mcg/kg IV, 300 min post dose): 33%
- inhibition in vivo at 3 mg/kg (iv, 5 h, 3 mg/kg I.V., AII 0.1 mcg/kg IV, 300 min post dose): 33%
- inhibition in vivo at 3 mg/kg [33]: 71%
- inhibition in vivo at 3 mg/kg [34]: 53%
- inhibition in vivo at 5 mg/kg [35]: 49%
- inhibition in vivo at 5 mg/kg (po, 0.5 h, 5 mg/kg P.O., AII 0.1 mcg/kg IV, 30 min post dose): 18%
- inhibition in vivo at 5 mg/kg [36]: 32%
- inhibition in vivo at 5 mg/kg [37]: 0%
- inhibition in vivo at 5 mg/kg [38]: 63%
- inhibition in vivo at 5 mg/kg (po, 2 h, 5 mg/kg P.O., AII 0.1 mcg/kg IV, 120 min post dose): 24%
- inhibition in vivo at 5 mg/kg [39]: 55%
- inhibition in vivo at 5 mg/kg [40]: 44%
- inhibition in vivo at 5 mg/kg [41]: 55%
- inhibition in vivo at 5 mg/kg [42]: 20%

Source: patent US5358951A, “Angiotensin II receptor blocking 2, 3, 6 substituted quinazolinones” (American Cyanamid Company, priority 1993, dated 1994)
